Active and inactive are the calls of the source. The rule behind the calls is not given here.
Columns and labels:
[1] = target: T1, Oxysterols receptor LXR-beta (Rattus norvegicus, UniProt Q62755); assay: Transactivation of rat LXRbeta expressed in HEK293FT cells measured after 14 to 18 hrs by dual-luciferase reporter gene assay; type: cell-based
T1 sequence (Q62755 whole entry): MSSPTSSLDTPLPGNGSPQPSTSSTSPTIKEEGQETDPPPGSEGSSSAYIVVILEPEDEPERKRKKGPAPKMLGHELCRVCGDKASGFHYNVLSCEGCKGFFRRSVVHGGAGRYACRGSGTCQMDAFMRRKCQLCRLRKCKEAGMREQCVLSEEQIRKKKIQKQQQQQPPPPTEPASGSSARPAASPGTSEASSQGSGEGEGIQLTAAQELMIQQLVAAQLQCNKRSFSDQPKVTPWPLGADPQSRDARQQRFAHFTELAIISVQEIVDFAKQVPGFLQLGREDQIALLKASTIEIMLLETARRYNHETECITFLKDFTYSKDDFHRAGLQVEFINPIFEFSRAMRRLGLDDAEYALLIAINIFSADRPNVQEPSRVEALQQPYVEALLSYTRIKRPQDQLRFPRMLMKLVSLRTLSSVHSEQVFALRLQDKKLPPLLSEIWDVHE

[2] = target: T2, Oxysterols receptor LXR-beta (Rattus norvegicus) (UniProt Q62755); assay: Transactivation of rat LXRbeta expressed in HEK293FT cells at 5 uM measured after 14 to 18 hrs by dual-luciferase reporter gene assay; type: cell-based
T2 sequence (whole entry): T1 sequence (Q62755 whole entry)

[3] = target: T2, Oxysterols receptor LXR-beta (Rattus norvegicus); assay: Transactivation of rat LXRbeta expressed in HEK293FT cells measured after 14 to 18 hrs by dual-luciferase reporter gene assay relative to T0901317; type: cell-based
[4] = target: T2, Oxysterols receptor LXR-beta (Rattus norvegicus); assay: Transactivation of rat LXRbeta expressed in HEK293FT cells co-expressing RXR at 5 uM measured after 14 to 18 hrs by dual-luciferase reporter gene assay; type: cell-based
[5] = target: T3, Oxysterols receptor LXR-alpha (Rattus norvegicus, UniProt Q62685); assay: Transactivation of rat LXRalpha expressed in HEK293FT cells co-expressing RXR at 5 uM measured after 14 to 18 hrs by dual-luciferase reporter gene assay; type: cell-based
T3 sequence (Q62685 whole entry): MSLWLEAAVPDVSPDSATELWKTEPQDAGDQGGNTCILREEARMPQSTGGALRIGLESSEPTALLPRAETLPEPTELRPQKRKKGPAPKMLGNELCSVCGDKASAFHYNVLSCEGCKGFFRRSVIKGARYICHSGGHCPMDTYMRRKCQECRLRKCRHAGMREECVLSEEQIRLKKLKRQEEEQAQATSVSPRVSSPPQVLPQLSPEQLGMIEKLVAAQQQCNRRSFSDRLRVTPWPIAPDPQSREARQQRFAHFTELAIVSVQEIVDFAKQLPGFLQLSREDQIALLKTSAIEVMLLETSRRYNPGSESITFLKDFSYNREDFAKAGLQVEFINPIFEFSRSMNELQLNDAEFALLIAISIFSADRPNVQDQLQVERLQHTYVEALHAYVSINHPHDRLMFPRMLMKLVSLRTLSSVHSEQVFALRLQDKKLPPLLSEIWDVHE

[6] = Ratio of compound effect for transactivation of rat LXRalpha expressed in HEK293FT cells to compound effect for transactivation of rat LXRbeta expressed in HEK293FT cells

Structure (SMILES): C[C@H](C[C@@H]1CCCN(C)C1=O)[C@H]1CC[C@H]2[C@@H]3CC=C4C[C@@H](O)CC[C@]4(C)[C@H]3CC[C@]12C
- EC50 [1]: Not Active

Structure (SMILES): CC(C)NC(=O)CC[C@@H](C)[C@H]1CC[C@H]2[C@@H]3CC=C4C[C@@H](O)CC[C@]4(C)[C@H]3CC[C@]12C
- Activity [2]: Active
- Efficacy [3]: 85%
- EC50 ([1]; read-out: EC50): 862 nM

Structure (SMILES): CCCN(C)C(=O)CC[C@@H](C)[C@H]1CC[C@H]2[C@@H]3CC=C4C[C@@H](O)CC[C@]4(C)[C@H]3CC[C@]12C
- Activity [4]: Active
- Efficacy [3]: 102%
- Activity [5]: Active
- EC50 ([1]; read-out: EC50): 1020 nM

Structure (SMILES): C[C@H](CCC(=O)N1CCCCC1)[C@H]1CC[C@H]2[C@@H]3CC=C4C[C@@H](O)CC[C@]4(C)[C@H]3CC[C@]12C
- Activity [2]: Active
- Efficacy [3]: 134%
- EC50 ([1]; read-out: EC50): 127 nM

Structure (SMILES): CCN(C)C(=O)C(C)C[C@@H](C)[C@H]1CC[C@H]2[C@@H]3CC=C4C[C@@H](O)CC[C@]4(C)[C@H]3CC[C@]12C (stereo in doubt; 11) [listing 1 of 2 here]
- EC50 ([1]; read-out: EC50): 1990 nM

Structure (SMILES): CCN(C)C(=O)C(C)C[C@@H](C)[C@H]1CC[C@H]2[C@@H]3CC=C4C[C@@H](O)CC[C@]4(C)[C@H]3CC[C@]12C (stereo in doubt; 10) [listing 1 of 2 here]
- Efficacy [3]: 39%

Structure (SMILES): C[C@H](CCC(=O)N(C)C)[C@H]1CC[C@H]2[C@@H]3CC=C4C[C@@H](O)CC[C@]4(C)[C@H]3CC[C@]12C
- Activity [2]: Active
- Efficacy [3]: 100%
- EC50 ([1]; read-out: EC50): 124 to 464 nM

Structure (SMILES): CCN(C)C(=O)C(C)C[C@@H](C)[C@H]1CC[C@H]2[C@@H]3CC=C4C[C@@H](O)CC[C@]4(C)[C@H]3CC[C@]12C (stereo in doubt; 11) [listing 2 of 2 here]
- Efficacy [3]: 65%

Structure (SMILES): CCN(C)C(=O)C(C)C[C@@H](C)[C@H]1CC[C@H]2[C@@H]3CC=C4C[C@@H](O)CC[C@]4(C)[C@H]3CC[C@]12C (stereo in doubt; 10) [listing 2 of 2 here]
- EC50 ([1]; read-out: EC50): 3900 nM

Structure (SMILES): C[C@H](CCC(=O)N1CCCC1)[C@H]1CC[C@H]2[C@@H]3CC=C4C[C@@H](O)CC[C@]4(C)[C@H]3CC[C@]12C
- Activity [2]: Active
- Efficacy [3]: 99%
- EC50 ([1]; read-out: EC50): 165 nM

Structure (SMILES): O=S(=O)(c1ccccc1)N(CC(F)(F)F)c1ccc(C(O)(C(F)(F)F)C(F)(F)F)cc1
- Efficacy [3]: 98%

Structure (SMILES): C[C@H](C[C@@H]1CCCCN(C)C1=O)[C@H]1CC[C@H]2[C@@H]3CC=C4C[C@@H](O)CC[C@]4(C)[C@H]3CC[C@]12C
- Efficacy [3]: 80%
- EC50 ([1]; read-out: EC50): 462 nM

Structure (SMILES): CCN(CC)C(=O)CC[C@@H](C)[C@H]1CC[C@H]2[C@@H]3CC=C4C[C@@H](O)CC[C@]4(C)[C@H]3CC[C@]12C
- Activity [4]: Active
- Activity [2]: Active
- Efficacy [3]: 211%
- Activity [5]: Active
- EC50 ([1]; read-out: EC50): 344 nM

Structure (SMILES): C[C@H](C[C@H]1CCCN(C)C1=O)[C@H]1CC[C@H]2[C@@H]3CC=C4C[C@@H](O)CC[C@]4(C)[C@H]3CC[C@]12C
- EC50 ([1]; read-out: EC50): 239 nM

Structure (SMILES): C[C@H](C[C@H]1CCN(C)C1=O)[C@H]1CC[C@H]2[C@@H]3CC=C4C[C@@H](O)CC[C@]4(C)[C@H]3CC[C@]12C
- EC50 ([1]; read-out: EC50): 1290 nM

Structure (SMILES): CC(C)N(C)C(=O)CC[C@@H](C)[C@H]1CC[C@H]2[C@@H]3CC=C4C[C@@H](O)CC[C@]4(C)[C@H]3CC[C@]12C
- Activity [4]: Active
- Efficacy [3]: 109%
- Activity [5]: Active
- EC50 ([1]; read-out: EC50): 623 nM

Structure (SMILES): C[C@H](C[C@@H]1CCN(C)C1=O)[C@H]1CC[C@H]2[C@@H]3CC=C4C[C@@H](O)CC[C@]4(C)[C@H]3CC[C@]12C
- EC50 [1]: Not Active

Structure (SMILES): CCN1CCC[C@@H](C[C@@H](C)[C@H]2CC[C@H]3[C@@H]4CC=C5C[C@@H](O)CC[C@]5(C)[C@H]4CC[C@]23C)C1=O
- Efficacy [3]: 62%
- EC50 ([1]; read-out: EC50): 643 nM

Structure (SMILES): CCN(C)C(=O)CC[C@@H](C)[C@H]1CC[C@H]2[C@@H]3CC=C4C[C@@H](O)CC[C@]4(C)[C@H]3CC[C@]12C
- Activity [4]: Active
- Efficacy [3]: 108%
- Activity [5]: Active
- EC50 ([1]; read-out: EC50): 786 nM

Structure (SMILES): CC(C)N(C(=O)CC[C@@H](C)[C@H]1CC[C@H]2[C@@H]3CC=C4C[C@@H](O)CC[C@]4(C)[C@H]3CC[C@]12C)C(C)C
- Activity [4]: Active
- Ratio [6]: 2
- Activity [2]: Active
- Efficacy [3]: 148%
- Activity [5]: Active
- EC50 ([1]; read-out: EC50): 1110 nM

Reference: ChEMBL document CHEMBL4339203, “Structural requirements of cholenamide derivatives as the LXR ligands” (Bioorg Med Chem Lett, 2019)
